Experimental findings from ChEMBL document CHEMBL3091273, “Sulphonamide 1,4-dithia-7-azaspiro[4,4]nonane derivatives as gelatinase A inhibitors” (Bioorg Med Chem, 2013) are described below.

One data set concerns the target T1, Aminopeptidase N (Sus scrofa, UniProt P15145).
T1 sequence (P15145 whole entry): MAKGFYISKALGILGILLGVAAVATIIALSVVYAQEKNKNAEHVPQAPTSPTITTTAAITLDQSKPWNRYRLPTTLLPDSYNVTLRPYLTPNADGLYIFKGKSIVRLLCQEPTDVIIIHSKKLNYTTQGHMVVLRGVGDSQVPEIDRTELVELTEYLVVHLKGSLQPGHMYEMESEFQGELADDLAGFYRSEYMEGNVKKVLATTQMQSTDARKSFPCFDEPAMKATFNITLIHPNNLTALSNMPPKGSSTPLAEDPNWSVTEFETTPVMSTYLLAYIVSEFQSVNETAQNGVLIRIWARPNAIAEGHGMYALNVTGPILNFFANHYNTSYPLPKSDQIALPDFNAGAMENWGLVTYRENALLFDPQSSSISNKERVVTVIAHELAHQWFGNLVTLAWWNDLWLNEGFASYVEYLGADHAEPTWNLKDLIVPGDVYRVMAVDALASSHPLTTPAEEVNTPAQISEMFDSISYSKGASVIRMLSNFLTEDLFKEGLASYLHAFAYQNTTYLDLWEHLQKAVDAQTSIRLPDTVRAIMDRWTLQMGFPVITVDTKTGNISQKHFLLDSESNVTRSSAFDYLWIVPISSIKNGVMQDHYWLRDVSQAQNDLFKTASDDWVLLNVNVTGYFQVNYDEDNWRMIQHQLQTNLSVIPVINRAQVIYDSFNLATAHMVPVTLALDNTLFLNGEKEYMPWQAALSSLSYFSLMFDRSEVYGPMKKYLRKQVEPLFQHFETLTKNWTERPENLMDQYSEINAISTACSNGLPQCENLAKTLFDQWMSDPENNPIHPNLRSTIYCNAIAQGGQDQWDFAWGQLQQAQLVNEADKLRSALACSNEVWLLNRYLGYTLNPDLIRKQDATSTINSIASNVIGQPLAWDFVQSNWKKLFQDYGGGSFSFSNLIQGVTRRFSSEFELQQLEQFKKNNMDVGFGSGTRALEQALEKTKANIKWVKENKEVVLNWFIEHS
Kind of data set: Inhibition of pig kidney microsomal APN using L-Leu-p-nitroanilide as substrate preincubated for 30 mins by UV-vis spectrophotometry.

Data set [1] has as its target 72 kDa type IV collagenase (Homo sapiens, UniProt P08253). Nature of the data set: Inhibition of gelatinase A (unknown origin) after 30 mins by spectrophotometry.
A further data set concerns Mus musculus. Kind of data set: Toxicity in […] cells xenografted Kunming mouse assessed as change in body weight at 50 mg/kg, po administered 6 days a week for two consecutive weeks (reference value: 26.03 +/- 5.04 grams). The format is organism-based. The following applies: in vivo, 144 h. The arrangement: dose 50 mg/kg, route oral.
The test system of data set [2] is H22. Nature of the data set: Antimetastatic activity in […] cells xenografted Kunming mouse assessed as lung weight at 50 mg/kg, po administered 6 days a week for two consecutive weeks (reference value: 0.223 +/- 0.067 grams). Format: functional.
The subject of another data set is K562. Kind of data set: Antiproliferative activity against human K562 cells after 48 hrs by MTT assay. The format is functional, cell-based.
Another data set relates to SK-OV-3. Nature of the data set: Antiproliferative activity against human SKOV3 cells after 48 hrs by MTT assay. Format: functional, cell-based. To be noted: SK-OV-3, 48 h.
The subject of the next data set is HL-60. Nature of the data set: Antiproliferative activity against human HL60 cells after 48 hrs by MTT assay. The format is functional, cell-based.
For data set [3], the system named is H22. Nature of the data set: Antimetastatic activity in […] cells xenografted Kunming mouse assessed as inhibition of tumor nodules formation at 50 mg/kg, po administered 6 days a week for two consecutive weeks. The format is functional. The following applies: H22, 144 h.

The structures appear in SMILES notation. Active and inactive are the calls of the source. No cut-off for these calls is given here.

72 kDa type IV collagenase, sequence (P08253 whole entry): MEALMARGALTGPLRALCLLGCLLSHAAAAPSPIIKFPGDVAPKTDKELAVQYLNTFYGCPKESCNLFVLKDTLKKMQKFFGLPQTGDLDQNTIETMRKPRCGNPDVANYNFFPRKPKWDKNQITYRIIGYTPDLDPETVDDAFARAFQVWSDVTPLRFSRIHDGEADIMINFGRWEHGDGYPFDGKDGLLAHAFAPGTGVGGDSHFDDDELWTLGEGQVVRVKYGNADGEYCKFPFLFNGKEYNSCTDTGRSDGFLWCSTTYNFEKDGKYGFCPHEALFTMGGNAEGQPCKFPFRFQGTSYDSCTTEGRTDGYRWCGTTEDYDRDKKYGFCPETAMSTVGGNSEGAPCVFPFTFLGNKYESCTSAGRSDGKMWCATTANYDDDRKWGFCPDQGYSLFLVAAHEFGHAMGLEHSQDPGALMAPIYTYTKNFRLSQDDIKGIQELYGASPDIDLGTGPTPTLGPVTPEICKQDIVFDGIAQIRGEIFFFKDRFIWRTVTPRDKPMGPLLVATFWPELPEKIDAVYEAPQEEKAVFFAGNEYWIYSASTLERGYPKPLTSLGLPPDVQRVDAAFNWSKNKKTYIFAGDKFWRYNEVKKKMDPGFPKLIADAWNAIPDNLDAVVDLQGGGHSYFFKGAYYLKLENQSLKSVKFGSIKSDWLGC

For the molecule `COc1ccc(S(=O)(=O)N2CC3(C[C@H]2C(=O)NNC(=O)Cc2ccccc2)SCCS3)cc1`, the concentration for half-maximal inhibition (IC50) result against Aminopeptidase N is “Not Active”; in data set [1], 386 nM.
In the case of `COc1ccc(/C=C/C(=O)N2CC(NC(=O)c3cccnc3)CC2C(=O)NO)cc1OC` (configuration not stated), the IC50 entry against Aminopeptidase N was “Not Active”; in data set [1], 1020 nM.
In the case of `COC(=O)[C@@H]1CC2(CN1S(=O)(=O)c1ccc(OC)cc1)SCCS2`, the IC50 result on Aminopeptidase N is “Not Active”; in data set [1], 7480 nM.
As to `CCOC(=O)CNC(=O)[C@@H]1CC2(CN1S(=O)(=O)c1ccccc1)SCCS2`, the concentration for half-maximal inhibition (IC50) entry at Aminopeptidase N is “Not Active”; in data set [1], 678 nM.
For `O=C(O)[C@@H]1CC2(CN1S(=O)(=O)c1ccccc1)SCCS2`, in that order: “Not Active” and 28200 nM.
In the same order, the values of `COc1ccc(S(=O)(=O)N2CC3(C[C@H]2C(=O)NO)SCCS3)cc1` are “Not Active” and 516 nM.
As for `O=C(NO)[C@@H]1CC2(CN1S(=O)(=O)c1ccc([N+](=O)[O-])cc1)SCCS2`, the IC50 result is “Not Active” against Aminopeptidase N and 786 nM in data set [1].
Take `Cc1ccc(S(=O)(=O)N2CC3(C[C@H]2C(=O)NO)SCCS3)cc1`: the IC50 result against Aminopeptidase N is “Not Active”; in data set [1], 678 nM.
With `COC(=O)[C@@H]1CC2(CN1S(=O)(=O)c1ccccc1)SCCS2`, the IC50 entry against Aminopeptidase N is “Not Active”; in data set [1] it was 3090 nM.
For `COc1ccc(S(=O)(=O)N2CC3(C[C@H]2C(=O)NN)SCCS3)cc1`, in that order: “Not Active” and 10800 nM.
In the same order, the values of `Cc1ccc(S(=O)(=O)N2CC3(C[C@H]2C(=O)O)SCCS3)cc1` are “Not Active” and 2780 nM.
Regarding `O=C(O)[C@@H]1CC2(CN1S(=O)(=O)c1ccc([N+](=O)[O-])cc1)SCCS2`, the Activity with Mus musculus was 25.59 g; in the data set with H22 [2], 0.288 g. Besides, the outcome in the data set with K562 and with HL-60 was inactive. Moreover, the IC50 in the data set with SK-OV-3 was 210000 nM; against Aminopeptidase N, “Not Active”; in data set [1], 835 nM. In addition, in the data set on H22 [3], the inhibition in vivo at 50 mg/kg came out at 26.3%.
Consider `COC(=O)[C@@H]1CC2(CN1S(=O)(=O)c1ccc([N+](=O)[O-])cc1)SCCS2`, for which the IC50 entry on Aminopeptidase N was “Not Active”; in data set [1], 77900 nM.
As for `CCOC(=O)CNC(=O)[C@@H]1CC2(CN1S(=O)(=O)c1ccc(C)cc1)SCCS2`, the IC50 result at Aminopeptidase N was “Not Active”; in data set [1], 530 nM.
On to `CCOC(=O)CNC(=O)[C@@H]1CC2(CN1S(=O)(=O)c1ccc(OC)cc1)SCCS2`, for which the IC50 entry against Aminopeptidase N was “Not Active”; in data set [1], 325 nM.
In the same order, the values of `Cc1ccc(S(=O)(=O)N2CC3(C[C@H]2C(=O)NN)SCCS3)cc1` are “Not Active” and 429000 nM.
As for `CCOC(=O)CNC(=O)[C@@H]1CC2(CN1S(=O)(=O)c1ccc([N+](=O)[O-])cc1)SCCS2`, the values for the IC50 result (at Aminopeptidase N; in data set [1]) were “Not Active” and 325 nM, respectively.
In the same order, the values of `NNC(=O)[C@@H]1CC2(CN1S(=O)(=O)c1ccc([N+](=O)[O-])cc1)SCCS2` are “Not Active” and 20600 nM.
In the same order, the values of `O=C(Cc1ccccc1)NNC(=O)[C@@H]1CC2(CN1S(=O)(=O)c1ccc([N+](=O)[O-])cc1)SCCS2` are “Not Active” and 1800 nM.
Take `O=C(Cc1ccccc1)NNC(=O)[C@@H]1CC2(CN1S(=O)(=O)c1ccccc1)SCCS2`: the IC50 result on Aminopeptidase N was “Not Active”; in data set [1] it was 5440 nM.
With `COc1ccc(S(=O)(=O)N2CC3(C[C@H]2C(=O)O)SCCS3)cc1`, the IC50 entry is “Not Active” against Aminopeptidase N and 9480 nM in data set [1].
On to `COC(=O)[C@@H]1CC2(CN1S(=O)(=O)c1ccc(C)cc1)SCCS2`, for which the IC50 result is “Not Active” against Aminopeptidase N and 878 nM in data set [1].
For `NNC(=O)[C@@H]1CC2(CN1S(=O)(=O)c1ccccc1)SCCS2`, in that order: “Not Active” and 6560 nM.
For `O=C(NO)[C@@H]1CC2(CN1S(=O)(=O)c1ccccc1)SCCS2`, in that order: “Not Active” and 877 nM.
In the case of `Cc1ccc(S(=O)(=O)N2CC3(C[C@H]2C(=O)NNC(=O)Cc2ccccc2)SCCS3)cc1`, the figures for the Activity with Mus musculus and in the data set with H22 [2] were 27.9 g and 0.27 g, respectively. Further, the outcome in the data set with K562 and with HL-60 was inactive. The IC50 in the data set with SK-OV-3 is 150000 nM; at Aminopeptidase N, “Not Active”; in data set [1], 679 nM. Also, the inhibition in vivo at 50 mg/kg in the data set on H22 [3] was 34.3%.
